Assay results published in patent publication EP4813463A2, “TYK2 INHIBITORS AND COMPOSITIONS AND METHODS THEREOF” (Lynk Pharmaceuticals Co. Ltd., priority 2023, dated 2024).
Converted amounts (≈) assume the structure as drawn. Read-outs that look alike come from different tables or passages of the source.

Experiments:
JAK1-JH2 domain = molecular target: T1, JAK1-JH2 domain (Homo sapiens, UniProt P23458); test: Binding activity test for JH2 domain of JAK1 (Tb-antibody/tracer FRET); conditions: JH2 domain enzyme; 60 min at 25°C, then 4°C overnight; read-out: JAK1 JH2 Binding IC50
T1 construct: JAK1-JH2 domain or TYK2-JH2 domain enzyme in assay buffer
Method in brief: (§1)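 Competitive TR-FRET binding: compounds dispensed as an 11-point 3-fold dilution series, then Tb-labelled antibody and tracer added to the JH2 protein system. Incubated at 25°C, then overnight at 4°C; FRET signal read on Envision and IC50 (nM) derived.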

Kinetic solubility = type: physicochemical; conditions: 100 mM pH 7.4 phosphate buffer, 1% DMSO, room temperature, read-out: Kinetics Solubility_PBS7.4
Description: Aliquots of 8 µL of reference and test compound stock solutions (10 mM/5 mM) are added into 792 µL of 100 mM pH 7.4 phosphate buffer. The final DMSO concentration is 1%. Sample tubes are shaken for 2 hours at 1000 rpm at room temperature. Samples are centrifuged at 12000 rpm for 10 min to precipitate un-dissolved particles. And transfer the supernatants to a new tube or plate. Add 5 µL of samples (no diluted, 10 times diluted, and 100 times diluted) and standard curve samples to 95 µL of ACN containing IS for LC-MS/MS analysis. Kinetic Solubilities Values of Exemplary Compounds

TYK2-JH2 domain = molecular target: T2, TYK2-JH2 domain (Homo sapiens, UniProt P29597); test: Binding activity test for JH2 domain of TYK2 (Tb-antibody/tracer FRET); conditions: for IC50: JH2 domain enzyme, 60 min at 25°C, then 4°C overnight, read-out: TYK2 JH2 Binding IC50; for JAK1/TYK2 selectivity: ratio of JAK1 JH2 to TYK2 JH2 binding IC50
T2 construct: JAK1-JH2 domain or TYK2-JH2 domain enzyme in assay buffer
Method in brief: as §1

[1] = system: Ba/F3-FL-TYK2-P760L cells; test: Anti-proliferative assay in engineered Ba/F3 cells (Cell-Titer Glo, 72 h); type: cell-based; conditions: 72 h compound treatment, concentration that causes 50% growth inhibition, read-out: Baf3-FL-T2P760L
Method in brief: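 Ba/F3 cells carrying Tel-dimerization/JAK kinase fusion, IL-3-independent, in RPMI-1640 + 10% FBS; 9-point 3-fold dilutions from 20 µM (0.1% DMSO) added after 24 h, 72 h at 37 °C. Viability by Cell-Titer Glo ATP luminescence; % inhibition versus DMSO cells, blank-corrected, giving IC50.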

[2] = phosphate buffer, pH 7.4, aqueous buffer, kinetic from dmso stock

T2 sequence (P29597 589-875 limits assumed): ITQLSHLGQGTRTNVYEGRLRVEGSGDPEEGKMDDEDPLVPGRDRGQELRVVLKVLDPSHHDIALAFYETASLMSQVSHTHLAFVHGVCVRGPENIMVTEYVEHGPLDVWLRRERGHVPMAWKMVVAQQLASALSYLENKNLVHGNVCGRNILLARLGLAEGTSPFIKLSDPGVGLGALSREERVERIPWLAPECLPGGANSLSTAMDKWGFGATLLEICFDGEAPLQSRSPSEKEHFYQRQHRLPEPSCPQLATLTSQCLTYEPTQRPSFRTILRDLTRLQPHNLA
T1 sequence (P23458 583-855 limits assumed): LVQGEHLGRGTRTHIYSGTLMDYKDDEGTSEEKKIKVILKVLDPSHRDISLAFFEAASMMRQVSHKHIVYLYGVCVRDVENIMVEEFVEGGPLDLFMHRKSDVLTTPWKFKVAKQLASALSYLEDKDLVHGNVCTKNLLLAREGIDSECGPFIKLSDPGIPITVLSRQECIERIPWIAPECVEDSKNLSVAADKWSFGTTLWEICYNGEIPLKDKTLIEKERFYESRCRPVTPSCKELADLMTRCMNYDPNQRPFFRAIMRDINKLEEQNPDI

SMILES | IC50 (JAK1-JH2 domain) [nM] | solubility kinetic at 2 h (Kinetic solubility; [2]) [µM] | IC50 (TYK2-JH2 domain) [nM] | JAK1/TYK2 selectivity (TYK2-JH2 domain) | IC50 ([1]; Mus musculus, BaF3, 72 h) [nM] | IC50 [1] [nM] | solubility kinetic at 2 h (Kinetic solubility) [µM]
[2H]C([2H])([2H])NC(=O)c1cnc(NC(=O)C2CC2)cc1Nc1nn(C)c2ccc([C@@H](O)C(F)(F)F)c(OC)c12 [Example 49B, (R)-6-(cyclopropanecarboxamido)-4-((4-methoxy-1-methyl-5-(2,2,2-trifluoro-1-hydroxyethyl)-1H-indazol-3-yl)amino)-N-(methyl-d3)nicotinamide] | 6.07 | 37.5 (≈ 18.6 µg/mL) | 0.211 | 28.76 | 18 |  | 
[2H]C([2H])([2H])NC(=O)c1cnc(NC(=O)C2CC23CC3)cc1Nc1cnn2ccc([C@H](O)C(F)(F)F)c(OC)c12 (stereo partly drawn) [Example 32, 4-((4-Methoxy-5-((S)-2,2,2-trifluoro-1-hydroxyethyl)pyrazolo[1,5-a]pyridin-3-yl)amino)-N-(methyl-d3)-6-(spiro[2.2]pentane-1-carboxamido)nicotinamide] | 23.5 | 62.2 (≈ 31.6 µg/mL) | 0.171 | 137.2 | 42.3 |  | 
[2H]C([2H])([2H])NC(=O)c1cnc(NC(=O)C2CC2)cc1Nc1cnn2ccc(C(C)C(F)(F)F)c(OC)c12 (stereo not drawn) [Example 9, 6-(Cyclopropanecarboxamido)-4-((4-methoxy-5-(1,1,1-trifluoropropan-2-yl)pyrazolo[1,5-a]pyridin-3-yl)amino)-N-(methyl-d3)nicotinamide] | 8.76 | 60 (≈ 28.8 µg/mL) | 0.158 | 55.4 |  | 51.6 | 
[2H]C([2H])([2H])NC(=O)c1cnc(NC(=O)C2CC2)cc1Nc1cnn2ccc(CC(C)(F)F)c(OC)c12 [Example 20, 6-(Cyclopropanecarboxamido)-4-((5-(2,2-difluoropropyl)-4-methoxypyrazolo[1,5-a]pyridin-3-yl)amino)-N-(methyl-d3)nicotinamide] | 13.6 | 15 (≈ 6.92 µg/mL) | 0.058 | 235.2 | 23.1 |  | 
[2H]C([2H])([2H])NC(=O)c1cnc(NC(=O)C2(F)CC2)cc1Nc1cnn2ccc([C@H](O)C(F)(F)F)c(OC)c12 [Example 19, (S)-6-(1-fluorocyclopropane-1-carboxamido)-4-((4-methoxy-5-(2,2,2-trifluoro-1-hydroxyethyl)pyrazolo[1,5-a]pyridin-3-yl)amino)-N-(methyl-d3)nicotinamide] | 276 | 22.7 (≈ 11.3 µg/mL) | 0.273 | 1011.9 | 137 |  | 
[2H]C([2H])([2H])NC(=O)c1cnc(NC(=O)C2CC2)cc1Nc1cnn2ccc(C(C)C(F)(F)F)c(OC)c12 (single isomer, unassigned) [Example 9A, (R*) -6-(cyclopropanecarboxamido)-4-((4-methoxy-5-(1,1,1-trifluoropropan-2-yl)pyrazolo[1,5-a]pyridin-3-yl)amino)-N-(methyl-d3)nicotinamide] | 39 |  | 0.424 | 91.9 |  | 2140 | 35.80 (≈ 17.2 µg/mL)
[2H]C([2H])([2H])NC(=O)c1cnc(NC(=O)C2CC2)cc1Nc1cnn2ccc(C#N)c(OC)c12 [Example 12, 4-((5-Cyano-4-methoxypyrazolo[1,5-a]pyridin-3-yl)amino)-6-(cyclopropanecarboxamido)-N-(methyl-d3)nicotinamide] | 21.1 | 15.1 (≈ 6.18 µg/mL) | 0.308 | 68.5 | 194 |  | 
CNC(=O)c1nnc(NC(=O)C2CC2)cc1Nc1nc2ccc(N3CC(OC)C3)cn2n1 [Example 188, 6-(Cyclopropanecarboxamido)-4-((6-(3-methoxyazetidin-1-yl)-[1,2,4]triazolo[1,5-a]pyridin-2-yl)amino)-N-methylpyridazine-3-carboxamide, reference compound] |  | 1.01 (≈ 0.442 µg/mL) |  |  |  |  | 
